From paper PMC8197367, “Comparative Antimicrobial Activity of Hp404 Peptide and Its Analogs against Acinetobacter baumannii” (International Journal of Molecular Sciences, 2021)
≈ marks a conversion by molar mass, not a printed value.

Tests used:
[1] = system: A. baumannii KCTC 2508; assay: Biofilm inhibition, crystal violet assay; assay type: cell-based, Acinetobacter baumannii; conditions: NB with 0.2% glucose, 24 h, 37 °C, 595 nm, highest concentration 25 μM
Protocol: (§1) Acinetobacter baumannii KCTC 2508, #3, #4, 409081 and 719705 were incubated overnight at 37°C to mid-log phase in NB medium. Bacterial cells (5 × 10^5 CFU/mL) were suspended in NB containing 0.2% glucose. A final concentration of 25 μM of peptides and antibiotics (meropenem and polymyxin B) was prepared with the bacterial suspensions in 96-well tissue culture plates and incubated at 37 °C for 24 h. The culture media was carefully removed, and biofilms were fixed with 100% methanol for 15 min and then stained with 0.1% crystal violet for 1 h and rinsed three times with distilled water. After air-drying, the biofilm mass was dissolved in 100 μL of 95% ethanol and measured at 595 nm using a microplate reader.

[2] = system: A. baumannii #3; assay: Biofilm inhibition, crystal violet assay; assay type: cell-based, Acinetobacter baumannii; conditions: NB with 0.2% glucose, 24 h, 37 °C, 595 nm, highest concentration 25 μM
Protocol: as §1

[3] = system: A. baumannii 409081; assay: Biofilm inhibition, crystal violet assay; assay type: cell-based, Acinetobacter baumannii; conditions: NB with 0.2% glucose, 24 h, 37 °C, 595 nm, highest concentration 25 μM
Protocol: as §1

[4] = system: A. baumannii #4; assay: microbe, parasite or virus in culture; conditions: 18 h
Source text: (§2) Staphylococcus aureus ATCC 25923, S. aureus ATCC 29213, P. aeruginosa ATCC 27853, Escherichia coli ATCC 25922 and Salmonella typhimurium ATCC 14028 strains were obtained from the American Type Culture Collection (ATCC, Manassas, VA, USA). Listeria monocytogenes KCTC 3710, Bacillus cereus KCTC 1012, K. pneumoniae KCTC 2208 and A. baumannii KCTC 2508 were obtained from the Korean Collection for Type Cultures (KRIBB, Daejeon, South Korea). Clinical isolates of A. baumannii strains were collected from Eulji University Hospital (Seoul, South Korea).
(§3) Hp1404 and its analog peptides activity against both gram-positive and gram-negative bacterial strains were tested using the broth microdilution method. Briefly, S. aureus (ATCC 25923, ATCC 29213) and B. cereus KCTC 1012 were cultured overnight at 37 °C in tryptic soy broth (TSB). P. aeruginosa ATCC 27853, K. pneumoniae KCTC 2208, A. baumannii KCTC 2508 and S. typhimurium ATCC 14028 were cultured overnight at 37 °C in nutrient broth (NB). E. coli ATCC 25922 was cultured overnight at 37 °C in luria bertani (LB). L. monocytogenes KCTC 3710 was cultured overnight at 37 °C in brain heart infusion (BHI). The cultures were diluted with fresh medium at a density of 2 × 10^5 CFU/mL. Peptides were serially diluted in sodium phosphate buffer (pH 7.2) to a final concentration of 25 μM. In a 96-well plate, 50-μL bacterial aliquots were mixed with 50 μL peptide solution. After incubation at 37 °C for 18 h, the MIC was determined using a plate reader at 600 nm. The experiment was performed in triplicate.

[5] = system: A. baumannii #3; assay: microbe, parasite or virus in culture; conditions: 18 h
Source text: as §2, §3

[6] = system: A. baumannii 409081; assay: microbe, parasite or virus in culture
Source text: as §2, §3

[7] = system: A. baumannii 719705; assay: microbe, parasite or virus in culture
Source text: as §2, §3

[8] = system: A. baumannii 907233; assay: microbe, parasite or virus in culture
Source text: as §2, §3

[9] = system: A. baumannii #2; assay: microbe, parasite or virus in culture; conditions: 18 h
Source text: as §2, §3

[10] = system: A. baumannii biofilms; assay: Live biofilm viability assay, SYTO 9 imaging; assay type: cell-based, Acinetobacter baumannii; conditions: preformed biofilm treated with 50 μM for 24 h; A. baumannii including strains isolated from patients; EVOS FL Auto 2
Protocol: An A. baumannii biofilm viability assay was performed by staining with Syto9 dye. Acinetobacter baumannii strains were diluted to approximately 5 × 10^5 CFU/mL and incubated for 24 h. Biofilms of A. baumannii strains were washed with PBS and treated with 25 and 50 μM peptides and antibiotics for 24 h. Biofilms were stained with SYTO 9 diluted in PBS and the biofilm was visualized using an EVOS™ FL Auto 2 Imaging System (Thermo Fisher Scientific, Waltham, MA, USA).

[11] = system: A. baumannii 719705; assay: Biofilm inhibition, crystal violet assay; assay type: cell-based, Acinetobacter baumannii; conditions: NB with 0.2% glucose, 24 h, 37 °C, 595 nm, highest concentration 25 μM
Protocol: as §1

| Molecule | concentration that inhibited biofilm formation [1] [µM] | concentration that inhibited biofilm formation [2] [µM] | concentration that inhibited biofilm formation [3] [µM] | MIC ([4]; Acinetobacter baumannii) [µM] | MIC ([5]; Acinetobacter baumannii) [µM] | MIC ([6]; Acinetobacter baumannii, 409081, 18 h) [µM] | MIC ([7]; Acinetobacter baumannii, 719705, 18 h) [µM] | MIC ([8]; Acinetobacter baumannii, 907233, 18 h) [µM] | MIC ([9]; Acinetobacter baumannii) [µM] | biofilm reduction by SYTO 9 fluorescence imaging [10] | concentration that inhibited biofilm formation [11] [µM] | MIC ([4]; A. baumannii #4 isolated from patient, broth microdilution, 37 °C, three independent experiments) [µM] | MIC ([5]; A. baumannii #3 isolated from patient, broth microdilution, 37 °C, three independent experiments) [µM] | MIC ([6]; A. baumannii 409081 isolated from patient, broth microdilution, 37 °C, 18 h, three independent experiments) [µM] | MIC ([7]; A. baumannii 719705 isolated from patient, broth microdilution, 37 °C, 18 h, three independent experiments) [µM] | MIC ([8]; A. baumannii 907233 isolated from patient, broth microdilution, 37 °C, 18 h, three independent experiments) [µM] | MIC ([9]; A. baumannii #2 isolated from patient, broth microdilution, 37 °C, three independent experiments) [µM] |
| --- | --- | --- | --- | --- | --- | --- | --- | --- | --- | --- | --- | --- | --- | --- | --- | --- | --- |
| C[C@@H](O)[C@H]1C(=O)N2C(C(=O)O)=C(S[C@@H]3CN[C@H](C(=O)N(C)C)C3)[C@H](C)[C@H]12 [Meropenem, meropenem, reference compound] | 6.25 | ≥ 25 | ≥ 25 | 100 (≈ 38.3 µg/mL) | 50 (≈ 19.2 µg/mL) | 200 (≈ 76.7 µg/mL) | 100 (≈ 38.3 µg/mL) | 200 (≈ 76.7 µg/mL) | 100 (≈ 38.3 µg/mL) | did not decrease biofilm formation | – | – | – | – | – | – | – |
| polymyxin B [reference compound] | 6.25 | 6.25 | 6.25 | – | – | – | – | – | – | did not decrease biofilm formation | 6.25 | 0.39 | 0.78 | 0.78 | 0.78 | 0.78 | 0.39 |
